Source: patent US20090042991A1, “Methods of increasing natural killer cell activity for therapy” (priority 2005, published 2009)
Where “and” joins values, the source holds several entries; their conditions need not be identical. Equal values may be shown once. Entries after “also recorded” stand apart in the source; their conditions may differ.

Assays:
NK cell activity [1] = experiment: NK cell cytotoxic activity of patient PBMC (K562/eGFP flow cytometry), sarcoma study; type: in vivo, human; details: for % tumor cell lysis post-dose / NK activity (change before and after dosing) / % tumor cell lysis pre-dose: Paclitaxel 80 + Cmpnd (1) 213 mg/M^2 weekly; for % tumor cell lysis pre-dose: baseline before dosing
From the text: (§1) The following procedure can be employed to assay NK cell activity in a subject. The procedure is adapted from Kantakamalakul W, Jaroenpool J, Pattanapanyasat K. A novel enhanced green fluorescent protein (EGFP)-K562 flow cytometric method for measuring natural killer (NK) cell cytotoxic activity. J Immunol Methods. 2003 Jan. 15; 272:189-197, the entire teachings of which are incorporated herein by reference.
(§2) Materials and methods: Human erythroleukaemic cell line, K562, was obtained from American Type Culture Collection (CCL-243, American Type Culture Collection, Manassas, Va.), and cultured in RPMI-1640 medium (Cat#1875-093Gibco Invitrogen Corp, Carlsbad, Calif.) supplemented with 10% heat inactivated fetal calf serum (Gibco), 2 mM L-glutamin, 100 μg/ml streptomycin and 100 IU/ml penicillin at 37° C. with 5% CO2. K562 cells were transduced with retroviral vector which encode green fluorescent protein (eGFP). Stable cell line was selected with antibiotic, G418.
(§3) The subject's peripheral blood mononuclear cells (PBMCs) were prepared by clinical study sites and received in BD Vacutainer Cell Preparation Tube with sodium heparin (Product Number: 362753, Becton Dickinson, Franklin Lakes, N.J.).
(§4) Effector cells alone and target cells alone were used as controls. All tubes were incubated at 37° C. with 5% CO2 for about 3.5 hr. Ten microliters of propidium iodide (PI) at a concentration of 1 mg/mL was added t each tube including effector and target control tubes and then incubated at room temperature for 15 min.
(§5) Cytotoxic activity was analyzed with a FACSCalibur flow cytometer (Becton Dickinson). Linear amplification of the forward and side scatter (FSC/SSC) signals, as well as logarithmic amplification of eGFP and PI emission in green and red fluorescence were obtained. Ten thousand events per sample tube with no gating for acquisition were collected for analysis. Data analysis for two-parameter dot plots for eGFP versus PI was performed using CELLQuest (Becton Dickinson Biosciences) software to enumerate live and dead target cells. Debris and dead cells were excluded by setting a threshold of forward light scatter.
Best Response indicates an evaluation of the patient's tumor: PR=at least a 30% decrease in the sum of the longest diameters as compared to baseline; SD indicates less than 20% of an increase and less than 30% of a decrease in the sum of the longest diameters as compared to baseline; and PD=at least a 20% increase in the sum of the longest diameters as compared to baseline. NK Activity indicates the change in NK activity before and after dosing.

Melanoma study: safety = type: in vivo, human
Experimental: The higher tolerated dose level was expanded to a total of 20 patients (Stage 1).
The study will continue to Stage 2 if 7 or more patients have a response of stable disease or better, or at least 2 patients have a partial response or better. A safety assessment was performed with the first 6 patients enrolled as the weekly dose schedule had not previously been studied in humans. The primary endpoint is non-progression rate (NPR) at 3 months and response rate. Pharmacodynamic parameters include pre and post-dose NK cell activity in blood and when possible, tumor biopsies.

[2] = Phase I trial: pharmacokinetics in plasma by LC/MS
Experimental: Pharmacokinetic (PK) studies were performed during cycle 1 using liquid chromatography/mass spectrometry (LC/MS) to measure both compounds in plasma. Heat shock protein 70 (Hsp70) was measured in plasma before and after treatment.

Hsp70 = experiment: Phase I trial: plasma Hsp70 by sandwich ELISA; type: in vivo, human
Experimental: Plasma Hsp70 was measured by a sandwich ELISA kit (Stressgen Bioreagents Victoria, British Columbia, CANADA) according to a modified protocol in house. In brief, Hsp70 in plasma specimens and serial concentrations of Hsp70 standard were captured onto 96-well plate on which anti-Hsp70 antibody was coated. Then captured Hsp70 was detected with a biotinylated anti-Hsp70 antibody followed by incubation with europium-conjugated streptavidin. After each incubation unbound materials were removed by washing. Finally, antibody-Hsp70 complex was measured by time resolved fluorometry of europium. Concentration of Hsp70 was calculated from a standard curve.

NK cell activity [3] = experiment: NK cell cytotoxic activity of patient PBMC (K562/eGFP flow cytometry), lung carcinoma study; type: in vivo, human; details: for % tumor cell lysis post-dose / NK activity (change before and after dosing) / % tumor cell lysis pre-dose: Effector/Target 80:1; for % tumor cell lysis pre-dose: baseline before dosing
From the text: as §1, §2, §3, §4, §5
Dosing was IV q 3 weeks for up to 6 cycles in the absence of dose-limiting toxicity or progression. […] The phase 2 primary endpoint is time to progression, with secondary endpoints of response rate, survival, and quality of life. Study pharmacodynamic parameters include NK cell activity and Hsp70 level.
Best Response indicates an evaluation of the patient's tumor: PR=at least a 30% decrease in the sum of the longest diameters as compared to baseline, while SD indicates less than 20% of an increase and less than 30% of a decrease in the sum of the longest diameters as compared to baseline. […] NK Activity indicates the change in NK activity before and after dosing.

[4] = Effector/Target 80:1, one value per subject
[5] = Effector/Target (40:1), subject 30
[6] = Paclitaxel 175 + Cmpnd (1) 233 mg/M^2 (carboplatin AUC 6), one value per subject
[7] = Paclitaxel 200 + Cmpnd (1) 266 mg/M^2 (carboplatin AUC 6), one value per subject

CN(NC(=O)CC(=O)NN(C)C(=S)c1ccccc1)C(=S)c1ccccc1 [Compound (1)]
% tumor cell lysis post-dose (NK cell activity [1]; 7 days after second dose, Effector/Target 80:1, one value per subject): 14.74% and 22.9% and 28.13% and 17.18% and 5.46% and 7.41% and 7.84% and 30.48% and 20.04% and 11.86%
NK activity (change before and after dosing) (NK cell activity [1]; [4]): decrease; also recorded: increase; also recorded: no change
% tumor cell lysis post-dose (NK cell activity [1]; [5]): 9.91%
NK activity (change before and after dosing) (NK cell activity [1]; [5]): no change
% tumor cell lysis pre-dose (NK cell activity [1]; [4]): 22.33% and 10.6% and 17.93% and 6.58% and 2.62% and 13.03% and 15.77% and 4.28% and 20.74% and 34.28%
% tumor cell lysis pre-dose (NK cell activity [1]; [5]): 9.88%
patients with decrease in NK cell activity pre- to post-dose (NK cell activity [1]; original patients of Table 4): four of the original patients
patients with statistically significant increase or no change in NK cell activity pre- to post-dose (NK cell activity [1]; original patients of Table 4): seven of the original patients
adverse events (Melanoma study: safety; Stage 1, with paclitaxel 80 mg/m2 weekly): as expected for paclitaxel chemotherapy administration
dose-limiting toxicities (Melanoma study: safety; initial safety assessment, Compound (1) 106 or 213 mg/m2 with paclitaxel 80 mg/m2 weekly): absence of dose-limiting toxicities
tolerability of the combination therapy (Melanoma study: safety; weekly schedule with paclitaxel): well-tolerated
PK linearity ([2]; Compound (1) 44-525 mg/m2, unaffected by paclitaxel dose): linear PK
terminal-phase half life ([2]; human plasma, IV over 3 hours co-administered with paclitaxel, cycle 1): 56.4 ± 13.8 min
percent increase in Hsp70 plasma levels (Hsp70; Compound (1) 88 mg/m2 with paclitaxel, at least one patient): about 90%
increase in Hsp70 plasma concentrations (Hsp70; Compound (1) 175 mg/m2 with paclitaxel, two patients): more than doubled
increase in Hsp70 plasma concentrations (Hsp70; Compound (1) 263 mg/m2 with paclitaxel, individual patients): roughly doubled; also recorded: more than 250%
increase in Hsp70 plasma concentrations (Hsp70; Compound (1) 438 mg/m2 with paclitaxel, individual patients): roughly doubled and ≤ 500%
Induction of Hsp70 protein in plasma (Hsp70; Compound (1) with paclitaxel, human plasma): dose dependent
plasma Hsp70 levels in patients (Hsp70; paclitaxel 175 mg/m2 and Compound (1) 88 through 438 mg/m2): dramatically increased
% tumor cell lysis post-dose (NK cell activity [3]; [6]): 30.8% and 7.75% and 14.61% and 16.14% and 8.76% and 10.05%
NK activity (change before and after dosing) (NK cell activity [3]; [6]): increase; also recorded: no change
% tumor cell lysis post-dose (NK cell activity [3]; [7]): 5.5% and 7.81%
NK activity (change before and after dosing) (NK cell activity [3]; [7]): decrease; also recorded: increase
% tumor cell lysis pre-dose (NK cell activity [3]; [6]): 7.79% and 0.92% and 10.7% and 9.55% and 3.12% and 7.84%
% tumor cell lysis pre-dose (NK cell activity [3]; [7]): 8.4% and 3.59%
NK activity (change before and after dosing) (NK cell activity [3]; dose not printed (subjects 9-11), listed as Cmpnd (1)): increase; also recorded: decrease
patients with increased NK cell activity (NK cell activity [3]; evaluable samples, assayed 7 days after the second dose): Seven of the 8
patients with increase in NK cell activity between pre- and post-dose (NK cell activity [3]; of the 11 original patients, paired t-test p=0.06, not significant): 8 patients
